These results are taken from patent US7846934B2, “Furo[3,2-B] pyrrol-3-one derivatives and their use as cysteinyl proteinase inhibitors” (Amura Therapeutics Limited, priority 2007, dated 2010).

The subject of series [1] is human osteoclasts. As to conditions: literature value; cited from earlier work.
Series [2] is described as follows: Liver microsomal incubations (HLM stability). As to conditions: human liver microsomes, 25 μM.
The nature of series [3]: Plasma incubations (human plasma stability). Particulars: 37° C., 25 μM.
Procedure: Human and rat plasma were purchased from Innovative Research Inc. (Southfield. Mich., USA). […] Aliquots were removed at 2 and 60 minutes and quenched with an equal volume of cold acetonitrile. After mixing vigorously, the precipitated protein matter was removed by filtration (Multiscreen Solvinert filter plates, Millipore, Bedford, Mass., USA) and the filtrate analysed by reverse phase HPLC with mass spectrometric detection, using single ion monitoring of the [M+H]^+ species. Metabolic turnover was determined by comparison of peak areas from the ion chromatograms of the parent compound at 2 and 60 minutes and expressed as percent remaining at 1 hour.
Series [4] has as its system human osteoclasts. Briefly: Human osteoclast resorption assay. Particulars: for inhibition at 1 µM: Homo sapiens, Osteoclast, read-out: Cell-based % Inh. @ 1 μM Human. The format is cell-based. Here is the method:
Bone resorption was studied using a model where human osteoclast precursor cells were cultured on bovine bone slices for 9 days and allowed to differentiate into bone-resorbing osteoclasts. The formed mature osteoclasts were then allowed to resorb bone. The assay was performed by Pharmatest Services Ltd, Itäinen Pitkakatu 4C, Turku, Finland. After the culture period, bone collagen degradation products were quantified from the culture medium as an index of bone resorption. Inhibitor compounds were added into the cell cultures after the differentiation period and their effects on the resorbing activity of mature osteoclasts were determined. The studies included a baseline group without added compounds and a positive control group where a potent cathepsin K inhibitor E-64 was added.
Human peripheral blood monocytes were suspended to culture medium and allowed to attach to bovine bone slices. The bone slices were transferred into 96-well tissue culture plates containing culture medium with appropriate amounts of important growth factors favouring osteoclast differentiation, including M-CSF, RANK-ligand and TGF-β. The cells were incubated in a CO2 incubator in humidified atmosphere of 95% air and 5% carbon dioxide at 37° C. At day 7 when osteoclast differentiation was complete, the culture medium was replaced with culture medium containing conditions favouring osteoclast activity. The cell culture was continued for an additional 2 days, during which the formed mature osteoclasts were allowed to resorb bone in the presence of vehicle, control inhibitor (E64) or test compounds. At the end of the culture, bone collagen degradation products released into the culture medium were determined using a commercially available ELISA method (CrossLaps® for culture, Nordic Bioscience, Herlev, Denmark) as an index of bone resorption (see Bagger, Y. Z. et al, J. Bone. Miner. Res. 14 (suppl. 1), S370).

The subject of a further series is rat osteoclasts. Briefly: Rat osteoclast resorption assay. Particulars: read-out: Cell-based % Inh. @ 1 μM Rat. Here is the method:
Bone resorption was studied using a model where mature osteoclasts derived from rat bone were cultured on bovine bone slices for 3 days and allowed to resorb bone in the presence of inhibitor, positive control (E-64) or vehicle. More specifically, tibia, femori and humeri were removed from 1 day old rat pups. The endosteal surfaces of the bones were scraped with a scapelto release osteoclasts into the culture medium and the osteoclasts were allowed to attach to bovine bone slices. After the culture period, bone collagen degradation products were quantified from the culture medium as an index of bone resorption. The assay was performed by Pharmatest Services Ltd, Itäinen Pitkakatu 4C, Turku, Finland.

Series [5] has as its target T1, Human recombinant cathepsin K (Homo sapiens, UniProt P43235).
T1 construct: B. Turk, Josef Stefan Institute, Ljubljana, Slovenia (academic supplier)
T1 sequence (P43235 115-329): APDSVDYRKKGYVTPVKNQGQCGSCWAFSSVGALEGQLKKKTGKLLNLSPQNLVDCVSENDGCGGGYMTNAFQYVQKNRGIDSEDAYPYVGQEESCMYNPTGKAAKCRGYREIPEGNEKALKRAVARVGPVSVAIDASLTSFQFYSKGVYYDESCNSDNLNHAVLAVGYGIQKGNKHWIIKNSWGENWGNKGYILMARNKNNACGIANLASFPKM
The series is described as follows: In vitro cathepsin Ki inhibition measurements. The series is classed as biochemical. As to conditions: Table 1; read-out: In vitro Ki (nM) vs Cath K. Here is the method:
Stock solutions of substrate or inhibitor were made up to 10 mM in 100% dimethylsulfoxide (DMSO) (Rathburns, Glasgow, U.K.) and diluted as appropriately required. In all cases the DMSO concentration in the assays was maintained at less than 1% (vol./vol.). The equilibrium inhibition constants (Ki^SS) for each compound were measured under steady-state conditions monitoring enzyme activity as a function of inhibitor concentration. The values were calculated on the assumption of pure competitive behaviour (Comish-Bowden, A. Fundamentals of enzyme kinetics Portland Press; 1995, 93-128).
The apparent inhibition constant (Ki) for each compound was determined on the basis that inhibition was reversible and occurred by a pure-competitive mechanism. The Ki values were calculated, from the dependence of enzyme activity as a function of inhibitor concentration, by direct regression analysis (Prism v 3.02) using Equation 2 (Cornish-Bowden, A., 1995).
In situations where the apparent dissociation constant (Ki^app) approached the enzyme concentrations, the Ki^app values were calculated using a quadratic solution in the form described by Equation 3 (Morrison, J. F. Trends Biochem. Sci., 7, 102-105, 1982; Morrison, J. F. Biochim. Biophys. Acta, 185 269-286, 1969; Stone, S. R. and Hofsteenge, J. Biochemistry, 25, 4622-4628, 1986).
Curves were fitted by non-linear regression analysis (Prism) using a fixed value for the enzyme concentration. Equation 4 was used to account for the substrate kinetics, where ‘Ki’ is the inhibition constant, ‘[S0]’ is the initial substrate concentration and ‘KM^app’ is the apparent macroscopic binding (Michaelis) constant for the substrate (Morrison, 1982).

The nature of series [6]: LogD determinations (shake-flask, octanol/PBS). As to conditions: 1-octanol/phosphate buffered saline, pH 7.4.
Procedure: LogD(PBS) determinations were performed in 96 well microtitre plates using a miniaturised “shake-flask” method. […] The plates were then capped and mixed vigorously for 1 hour on a microtitre plate shaker, after which they were left to stand, allowing the PBS and octanol phases to separate. The PBS layer was analysed by reverse phase HPLC with mass spectrometric detection, using single ion monitoring of the [M+H]^+ species.
[formula] Where AUCstd and AUCpbs are the peak areas from the standard and test ion chromatograms respectively.

A value given as a limit tells only on which side of the number the result lay.

On to `CC(C)C[C@H](NC(=O)c1ccc(C(C)(C)C)cc1)C(=O)N1CC[C@H]2OCC(=O)[C@H]21` [reference compound], for which the “Cell-based % Inh. @ 1 μM Human (Lit.)” value in the series with human osteoclasts [1] was “Lit. 60%”. Further, the “HLM % rem. @ 1 hr” value in series [2] is 70%. For the same compound, in series [3], the “Human Plasma Stability % rem. @ 1 H” value is listed as 75%.
As for `CC(C)C[C@H](NC(=O)c1ccc(N2CCN(C)CC2)cc1)C(=O)N1CC[C@H]2OCC(=O)[C@H]21` [Example 1, 4-(4-methylpiperazin-1-yl)-N-((S)-4-methyl-1-oxo-1-((3aS,6aR)-3-oxodihydro-2H-furo[3,2-b]pyrrol-4(5H, 6H, 6aH)-yl)pentan-2-yl)benzamide, reference compound], the “HLM % rem. @ 1 hr” value in series [2] was 95%. The inhibition at 1 µM with human osteoclasts [4] stood at 55%; with rat osteoclasts, 43%. In series [3], the “Human Plasma Stability % rem. @ 1 H” value is on record as 95%.
`CN1CCN(c2ccc(C(=O)N[C@H](C(=O)N3CC[C@H]4OCC(=O)[C@H]43)C3CCCCC3)cc2)CC1` [Example 2, N-((S)-1-cyclohexyl-2-oxo-2-((3aS,6aR)-3-oxodihydro-2H-furo[3,2-b]pyrrol-4(5H,6H,6aH)-yl)ethyl)-4-(4-methylpiperazin-1-yl)benzamide]: the Ki in series [5] was found to be 14 nM. The compound also gave a logD at 1 h in series [6] of 1.21. For the same compound, the “HLM % rem. @ 1 hr” value in series [2] amounted to 91%. For the same compound, in the series with human osteoclasts [4], the “Cell-based % Inh. @ 1 μM Human” value is given as 76% and the inhibition at 1 µM was 74 to 76%. The inhibition at 1 µM in the series on rat osteoclasts amounted to 0%. Further, in series [3], the “Human Plasma Stability % rem. @ 1 H” value was determined as 99%.
Take `CN1CCN(c2ccc(C(=O)N[C@H](C(=O)N3CC[C@H]4OCC(=O)[C@H]43)C3CCCC3)cc2)CC1` [Example 3, N-((S)-1-cyclopentyl-2-oxo-2-((3aS,6aR)-3-oxodihydro-2H-furo[3,2-b]pyrrol-4(5H,6H,6aH)-yl)ethyl)-4-(4-methylpiperazin-1-yl)benzamide]: the Ki in series [5] worked out at 2 nM. The compound also yielded a pH-dependent lipophilicity (logD) at 1 h in series [6] of 0.78. The “HLM % rem. @ 1 hr” value in series [2] is given as 91%. Also, in the series on human osteoclasts [4], the “Cell-based % Inh. @ 1 μM Human” value turned out to be 74% and the inhibition at 1 µM is 74 to 76%. In addition, the inhibition at 1 µM in the series with rat osteoclasts is 60%. Further, in series [3], the “Human Plasma Stability % rem. @ 1 H” value worked out at 97%.
In the case of “N-((S)-1-cyclopentyl-2-oxo-2-((3aS,6aR)-3-oxodihydro-2H-furo[3,2-b]pyrrol-4(5H,6H,6aH)-yl)ethyl)-4-(4-propylpiperazin-1-yl)benzamide [Example 17]”, the “LogD pH 7.4” value came out at 1.55. In series [5], the Ki amounted to 7 nM. Moreover, the “Cell-based % Inh. @ 1 μM Human” value with human osteoclasts [4] was over 80%.

What is called Ki is the dissociation constant of the complex between target and ligand, obtained from inhibition or displacement. As usually defined, the logD is lipophilicity at a set pH, counting ionised and neutral species. A low value points to a more hydrophilic compound.
